# Results published in patent US20240140933A1, “OXOINDOLINE COMPOUND FOR THE TREATMENT OF INFLAMMATORY DISEASES OR CANCER” (Hoffmann-La Roche Inc., priority 2021, published 2024).
# Molecular target: PDHK1 (Homo sapiens (Human), UniProt Q15118)
# Assay: PDHK1 enzymatic assay (AlphaScreen, phosphorylation of PDHE1 S293)
# Assay type: biochemical
# Conditions: 1 nM PDHK1, 25 nM PDHE1, 20 μM ATP, 30° C. for 45 minutes
# Source text: Pyruvate dehydrogenase complex (PDHc) is an enzyme that catalyzes the reaction of pyruvate and a lipoamide to give the acetylated dihydrolipoamide and carbon dioxide. PDHc has three subunits E1, E2 and E3. E1 has 3 serine phosphorylation sites S293, S232, S300. If E1 was phosphorylated, PDH will be inactivated. PDHK can phosphorylate PDH protein (also named PDHE1) in PDH complex (PDC) to inactivate it.
# Sequence of PDHK1 (Q15118 29-436): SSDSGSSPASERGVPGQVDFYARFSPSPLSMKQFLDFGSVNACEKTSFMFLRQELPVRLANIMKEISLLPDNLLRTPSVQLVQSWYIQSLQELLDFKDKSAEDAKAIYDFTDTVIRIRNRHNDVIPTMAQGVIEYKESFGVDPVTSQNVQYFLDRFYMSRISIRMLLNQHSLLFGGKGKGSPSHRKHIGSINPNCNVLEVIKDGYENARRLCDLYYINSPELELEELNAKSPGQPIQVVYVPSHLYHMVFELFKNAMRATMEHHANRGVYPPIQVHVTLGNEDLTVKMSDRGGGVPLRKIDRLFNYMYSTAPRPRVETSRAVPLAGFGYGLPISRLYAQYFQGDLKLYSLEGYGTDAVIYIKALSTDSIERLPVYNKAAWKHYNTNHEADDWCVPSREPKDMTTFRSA
compound,measurement,value
"CCNc1cc(F)cc2c1NC(=O)C2(C)N1CCC[C@@H](NC(=O)C2CC3(C2)CN(C(=O)CCl)C3)C1 (stereo partly drawn) [Example 40, 2-(2-chloroacetyl)-N-[(3R)-1-[7-(ethylamino)-5-fluoro-3-methyl-2-oxo-indolin-3-yl]-3-piperidyl]-2-azaspiro[3.3]heptane-6-carboxamide]",Enzymatic IC50 against PDHK1,0.017 µg/mL
